One block for each molecule: values may come before it.
Columns and labels:
HCT-116 [1] = assay: Antiproliferative activity against human HCT-116 cells assessed as inhibition of cell growth by MTT assay; assay type: functional, cell-based
HepG2 = assay: Antiproliferative activity against human HepG2 cells assessed as inhibition of cell growth by MTT assay; assay type: functional, cell-based
HT-29 = assay: Antiproliferative activity against human HT-29 cells assessed as inhibition of cell growth by MTT assay; assay type: functional, cell-based
HeLa = assay: Antiproliferative activity against human HeLa cells assessed as inhibition of cell growth by MTT assay; assay type: functional, cell-based
[2] = Cytotoxicity against HEK293 cells assessed as inhibition of cell growth by MTT assay; assay type: toxicity, cell-based; settings: human
[3] = target: Vascular endothelial growth factor receptor 2 (Homo sapiens, UniProt P35968); assay: Inhibition of VEGFR2 (unknown origin) by kinase-glo luminescent assay
Vascular endothelial growth factor receptor 2, sequence (P35968 whole entry): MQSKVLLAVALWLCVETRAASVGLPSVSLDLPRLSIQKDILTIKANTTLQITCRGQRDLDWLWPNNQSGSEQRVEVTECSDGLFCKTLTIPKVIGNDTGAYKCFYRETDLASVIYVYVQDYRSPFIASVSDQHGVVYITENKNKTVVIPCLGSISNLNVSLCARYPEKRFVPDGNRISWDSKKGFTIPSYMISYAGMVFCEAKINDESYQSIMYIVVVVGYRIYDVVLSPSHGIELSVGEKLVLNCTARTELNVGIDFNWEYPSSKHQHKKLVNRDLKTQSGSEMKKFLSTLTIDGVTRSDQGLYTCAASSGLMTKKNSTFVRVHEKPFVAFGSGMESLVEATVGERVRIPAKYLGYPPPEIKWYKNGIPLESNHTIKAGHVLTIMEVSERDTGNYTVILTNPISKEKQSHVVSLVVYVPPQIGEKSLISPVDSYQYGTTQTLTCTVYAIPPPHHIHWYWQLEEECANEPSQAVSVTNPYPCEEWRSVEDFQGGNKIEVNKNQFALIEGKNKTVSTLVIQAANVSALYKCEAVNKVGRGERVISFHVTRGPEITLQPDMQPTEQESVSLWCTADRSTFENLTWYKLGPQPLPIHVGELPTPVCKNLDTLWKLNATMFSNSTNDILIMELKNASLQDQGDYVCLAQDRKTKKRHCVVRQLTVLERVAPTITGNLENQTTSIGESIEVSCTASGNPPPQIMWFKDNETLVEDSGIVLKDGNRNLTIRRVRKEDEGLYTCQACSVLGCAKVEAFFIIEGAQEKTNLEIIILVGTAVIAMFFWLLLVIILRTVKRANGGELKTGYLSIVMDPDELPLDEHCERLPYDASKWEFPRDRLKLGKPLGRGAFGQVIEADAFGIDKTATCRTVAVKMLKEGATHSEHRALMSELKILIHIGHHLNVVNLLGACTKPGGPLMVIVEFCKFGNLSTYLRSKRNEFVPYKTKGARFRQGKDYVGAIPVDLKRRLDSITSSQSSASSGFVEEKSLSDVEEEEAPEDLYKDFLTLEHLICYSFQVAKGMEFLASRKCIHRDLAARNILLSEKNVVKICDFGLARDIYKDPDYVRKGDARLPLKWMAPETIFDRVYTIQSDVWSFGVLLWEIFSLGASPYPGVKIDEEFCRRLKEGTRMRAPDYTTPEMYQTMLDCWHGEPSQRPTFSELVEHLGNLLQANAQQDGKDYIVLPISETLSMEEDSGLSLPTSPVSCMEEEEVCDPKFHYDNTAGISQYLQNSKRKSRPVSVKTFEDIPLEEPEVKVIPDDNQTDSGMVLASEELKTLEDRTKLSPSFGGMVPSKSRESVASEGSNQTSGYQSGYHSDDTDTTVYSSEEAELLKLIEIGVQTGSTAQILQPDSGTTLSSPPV

HCT-116 [4] = assay: Induction of cell cycle arrest in human HCT-116 cells assessed as accumulation of cells at S phase at 0.75 uM incubated for 24 hrs by PI staining based flow cytometry analysis (reference value: 47.56 %); assay type: functional
Tubulin (Homo sapiens) = Tubulin (Homo sapiens) (UniProt P68371+Q9H4B7+P0DPH7+P68366+Q13509+Q71U36+P04350+Q3ZCM7+P07437+P68363+Q9BQE3+Q6PEY2+Q13885+Q9BVA1+Q9BUF5); assay: Inhibition of tubulin polymerization (unknown origin) at 10 uM measured every minute for 20 mins by fluorescence based assay relative to control; assay type: protein-complex assay
HCT-116 [5] = assay: Induction of cell cycle arrest in human HCT-116 cells assessed as accumulation of cells at S phase at 3 uM incubated for 24 hrs by PI staining based flow cytometry analysis (reference value: 47.56 %); assay type: functional
HCT-116 [6] = assay: Induction of cell cycle arrest in human HCT-116 cells assessed as accumulation of cells at G1/G0 phase at 3 uM incubated for 24 hrs by PI staining based flow cytometry analysis (reference value: 31.33 %); assay type: functional
Tubulin = assay: Inhibition of tubulin polymerization (unknown origin) measured every minute for 20 mins by fluorescence based assay; assay type: protein-complex assay, Homo sapiens
HCT-116 [7] = assay: Induction of cell cycle arrest in human HCT-116 cells assessed as accumulation of cells at S phase at 1.5 uM incubated for 24 hrs by PI staining based flow cytometry analysis (reference value: 47.56 %); assay type: functional
HCT-116 [8] = assay: Induction of cell cycle arrest in human HCT-116 cells assessed as accumulation of cells at G2/M phase at 0.75 uM incubated for 24 hrs by PI staining based flow cytometry analysis (reference value: 21.10 %); assay type: functional
HCT-116 [9] = assay: Induction of cell cycle arrest in human HCT-116 cells assessed as accumulation of cells at G2/M phase at 3 uM incubated for 24 hrs by PI staining based flow cytometry analysis (reference value: 21.10 %); assay type: functional
HCT-116 [10] = assay: Induction of cell cycle arrest in human HCT-116 cells assessed as accumulation of cells at G1/G0 phase at 1.5 uM incubated for 24 hrs by PI staining based flow cytometry analysis (reference value: 31.33 %); assay type: functional
HCT-116 [11] = assay: Induction of cell cycle arrest in human HCT-116 cells assessed as accumulation of cells at G2/M phase at 1.5 uM incubated for 24 hrs by PI staining based flow cytometry analysis (reference value: 21.10 %); assay type: functional
HCT-116 [12] = assay: Induction of cell cycle arrest in human HCT-116 cells assessed as accumulation of cells at G1/G0 phase at 0.75 uM incubated for 24 hrs by PI staining based flow cytometry analysis (reference value: 31.33 %); assay type: functional

IC50 (HepG2): > 100 µM
Compound: O=C(CSc1nnc(-c2ccccn2)n1N1C(=O)c2ccccc2C1=O)c1ccccc1

IC50 (HepG2): 78.3 µM
Compound: O=C(CSc1nnc(-c2ccccn2)n1N1C(=O)c2ccccc2C1=O)c1ccc(Cl)cc1

IC50 (HepG2): > 100 µM
Compound: CC(=O)CSc1nnc(-c2ccccn2)n1N1C(=O)c2ccccc2C1=O

IC50 (HepG2): 90.3 µM
Compound: COc1ccc(C(=O)CSc2nnc(-c3ccccn3)n2N2C(=O)c3ccccc3C2=O)cc1

IC50 (HepG2): 89.7 µM
Compound: Cc1ccc(C(=O)CSc2nnc(-c3cnccn3)n2N2C(=O)c3ccccc3C2=O)cc1

IC50 (HepG2): > 100 µM
Compound: O=C(CSc1nnc(-c2cnccn2)n1N1C(=O)c2ccccc2C1=O)c1ccc(C(F)(F)F)cc1

IC50 (HepG2): 94.3 µM
Compound: O=C(CSc1nnc(-c2ccccn2)n1N1C(=O)c2ccccc2C1=O)c1ccc(C(F)(F)F)cc1

IC50 (HepG2): > 100 µM
Compound: O=C(CSc1nnc(-c2cnccn2)n1N1C(=O)c2ccccc2C1=O)C1CC1

IC50 (HepG2): > 100 µM
Compound: O=C(CSc1nnc(-c2cnccn2)n1N1C(=O)c2ccccc2C1=O)c1ccc(Cl)cc1

IC50 (HepG2): > 100 µM
Compound: O=C(CSc1nnc(-c2ccccn2)n1N1C(=O)c2ccccc2C1=O)C1CC1

IC50 (HepG2): > 100 µM
Compound: CC(=O)CSc1nnc(-c2cnccn2)n1N1C(=O)c2ccccc2C1=O

IC50 (HepG2): 65.2 µM
Compound: Cc1ccc(C(=O)CSc2nnc(-c3ccccn3)n2N2C(=O)c3ccccc3C2=O)cc1

IC50 (HepG2): > 100 µM
Compound: COc1cc(Cc2nnc(SCC(C)=O)n2N2C(=O)c3ccccc3C2=O)cc(OC)c1OC

The next lines start with the molecule.

Compound: COc1ccc(/C=C\c2cc(OC)c(OC)c(OC)c2)cc1O [COMBRETASTATIN A4]
IC50 (HCT-116 [1]): 1.1 µM

Compound: COc1cc(Cc2nnc(SCC(=O)c3ccc(Cl)cc3)n2N2C(=O)c3ccccc3C2=O)cc(OC)c1OC
IC50 (HepG2): 94.8 µM

Compound: COc1ccc(C(=O)CSc2nnc(Cc3cc(OC)c(OC)c(OC)c3)n2N)cc1
IC50 (HT-29): 10.8 µM | IC50 (HeLa): 11.8 µM | IC50 (HCT-116 [1]): 4 µM | IC50 (HepG2): 16.2 µM | IC50 [2]: > 100 µM

Compound: COc1cc(Cc2nnc(SCC(=O)c3ccc(C(F)(F)F)cc3)n2N2C(=O)c3ccccc3C2=O)cc(OC)c1OC
IC50 (HepG2): 35.3 µM

Compound: COc1cc(COc2nnc(SCC(=O)c3ccc(C)cc3)n2N)cc(OC)c1OC
IC50 (HT-29): 12.2 µM | IC50 (HeLa): 29.4 µM | IC50 (HCT-116 [1]): 7.57 µM | IC50 (HepG2): 13.1 µM | IC50 [2]: > 100 µM

Compound: COc1cc(Cc2nnc(SCC(=O)c3ccccc3)n2N2C(=O)c3ccccc3C2=O)cc(OC)c1OC
IC50 (HepG2): 71.3 µM

Compound: COc1ccc(/C=N/n2c(SCC(=O)c3ccc(Cl)cc3)nnc2-c2cc3ccccc3[nH]2)cc1
IC50 [3]: 0.071 µM

Compound: COc1cc(Cc2nnc(SCC(=O)C3CC3)n2N2C(=O)c3ccccc3C2=O)cc(OC)c1OC
IC50 (HepG2): > 100 µM

Compound: COc1cc(Cc2nnc(SCC(=O)c3ccc(C)cc3)n2N2C(=O)c3ccccc3C2=O)cc(OC)c1OC
IC50 (HepG2): > 100 µM

Compound: COc1cc(COc2nnc(SCC(=O)c3ccc(C)cc3)n2N2C(=O)c3ccccc3C2=O)cc(OC)c1OC
IC50 (HepG2): 80.3 µM

Compound: COc1ccc(C(=O)CSc2nnc(OCc3cc(OC)c(OC)c(OC)c3)n2N)cc1
IC50 (HT-29): 67.6 µM | IC50 (HeLa): > 100 µM | IC50 (HCT-116 [1]): > 100 µM | IC50 (HepG2): 25.4 µM | IC50 [2]: > 100 µM

Compound: COc1ccc(C(=O)CSc2nnc(Cc3cc(OC)c(OC)c(OC)c3)n2N2C(=O)c3ccccc3C2=O)cc1
IC50 (HepG2): 61.1 µM

Compound: COc1cc(Cc2nnc(SCC(=O)c3ccc(C)cc3)n2N)cc(OC)c1OC
Activity (HCT-116 [4]): 36.97% | inhibition (Tubulin (Homo sapiens)): 36% | Activity (HCT-116 [5]): 40.12% | IC50 (HT-29): 0.62 µM | Activity (HCT-116 [6]): 11.13% | IC50 (Tubulin): 12.7 µM | IC50 (HeLa): 9.02 µM | IC50 (HCT-116 [1]): 1.46 µM | IC50 (HepG2): 3.65 µM | IC50 [2]: > 100 µM | Activity (HCT-116 [7]): 30.21% | Activity (HCT-116 [8]): 33.73% | Activity (HCT-116 [9]): 48.75% | Activity (HCT-116 [10]): 33.76% | Activity (HCT-116 [11]): 36.03% | Activity (HCT-116 [12]): 29.3%

Compound: COc1cc(COc2nnc(SCC(=O)c3ccc(Cl)cc3)n2N2C(=O)c3ccccc3C2=O)cc(OC)c1OC
IC50 (HepG2): > 100 µM

Compound: COc1cc(-c2nnc(SCC(=O)c3ccc(C)cc3)n2N2C(=O)c3ccccc3C2=O)cc(OC)c1OC
inhibition (Tubulin (Homo sapiens)): 19% | IC50 (HT-29): 76.4 µM | IC50 (HeLa): 16.2 µM | IC50 (HCT-116 [1]): > 100 µM | IC50 [2]: > 100 µM

— ChEMBL document CHEMBL5143659, “Concise synthesis and preliminary biological evaluation of new triazolylthioacetone derivatives bearing pyridine, pyrazine, and 3,4,5-trimethoxybenzyl fragment” (Bioorg Med Chem Lett, 2022)
